Experimental data reported in ChEMBL document CHEMBL3045834 (Med Chem Res, 2004).

How the values were obtained:
Rattus norvegicus [1] = organism: Rattus norvegicus; assay: Selectivity ratio for antagonist activity at alpha1D adrenergic receptor in Rattus norvegicus (rat) aorta to antagonist activity at alpha1A adrenergic receptor in vas deferens
Rattus norvegicus [2] = organism: Rattus norvegicus; assay: Selectivity ratio for antagonist activity at alpha1B adrenergic receptor in Rattus norvegicus (rat) spleen to antagonist activity at alpha1D adrenergic receptor in aorta; assay type: tissue-based
Rattus norvegicus [3] = organism: Rattus norvegicus; assay: Selectivity ratio for antagonist activity at alpha1B adrenergic receptor in Rattus norvegicus (rat) spleen to antagonist activity at alpha1A adrenergic receptor in rat vas deferens; assay type: tissue-based
[4] = biological target: T1, Alpha-1D adrenergic receptor (Rattus norvegicus, UniProt P23944); assay: Competitive antagonist activity at alpha1D adrenergic receptor in Rattus norvegicus (rat) aorta assessed as inhibition of (-)-noradrenaline-induced contraction; details: read-out: pA2 (converted)
T1 sequence (P23944 whole entry): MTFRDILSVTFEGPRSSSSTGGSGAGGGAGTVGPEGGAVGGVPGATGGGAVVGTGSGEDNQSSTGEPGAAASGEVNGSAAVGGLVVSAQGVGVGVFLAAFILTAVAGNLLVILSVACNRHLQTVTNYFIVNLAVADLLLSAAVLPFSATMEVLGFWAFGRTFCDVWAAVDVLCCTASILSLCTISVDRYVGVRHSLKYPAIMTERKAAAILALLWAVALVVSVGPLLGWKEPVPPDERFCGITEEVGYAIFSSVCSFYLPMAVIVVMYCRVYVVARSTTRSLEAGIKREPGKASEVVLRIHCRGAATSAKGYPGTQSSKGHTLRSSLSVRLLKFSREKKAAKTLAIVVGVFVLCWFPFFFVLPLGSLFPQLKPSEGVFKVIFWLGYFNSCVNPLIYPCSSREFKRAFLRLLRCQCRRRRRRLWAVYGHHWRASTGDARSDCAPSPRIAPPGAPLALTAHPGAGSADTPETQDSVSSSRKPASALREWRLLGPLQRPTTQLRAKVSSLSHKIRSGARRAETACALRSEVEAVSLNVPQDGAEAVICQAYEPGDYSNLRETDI

[5] = biological target: T2, Alpha-1B adrenergic receptor (Rattus norvegicus) (UniProt P15823); assay: Noncompetitive antagonist activity at alpha1B adrenergic receptor in Rattus norvegicus (rat) spleen assessed as inhibition of (-)-phenylephrine-induced contraction
T2 sequence (whole entry): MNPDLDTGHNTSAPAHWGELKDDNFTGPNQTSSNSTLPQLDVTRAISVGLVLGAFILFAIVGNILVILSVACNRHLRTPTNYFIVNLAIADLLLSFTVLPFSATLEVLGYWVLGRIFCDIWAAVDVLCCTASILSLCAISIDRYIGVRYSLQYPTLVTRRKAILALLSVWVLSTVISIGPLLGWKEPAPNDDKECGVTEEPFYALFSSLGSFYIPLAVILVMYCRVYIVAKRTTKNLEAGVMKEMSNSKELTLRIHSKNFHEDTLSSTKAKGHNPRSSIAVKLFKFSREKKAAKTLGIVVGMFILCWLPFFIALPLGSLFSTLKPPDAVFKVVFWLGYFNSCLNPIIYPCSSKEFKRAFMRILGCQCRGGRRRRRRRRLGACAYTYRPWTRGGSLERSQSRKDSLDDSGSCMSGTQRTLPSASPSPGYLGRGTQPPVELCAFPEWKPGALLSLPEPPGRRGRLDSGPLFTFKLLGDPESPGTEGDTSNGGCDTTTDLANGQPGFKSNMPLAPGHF

[6] = biological target: T3, Alpha-1A adrenergic receptor (Rattus norvegicus) (UniProt P43140); assay: Noncompetitive antagonist activity at alpha1A adrenergic receptor in Rattus norvegicus (rat) vas deferens assessed as inhibition of (-)-noradrenaline-induced contraction
T3 sequence (whole entry): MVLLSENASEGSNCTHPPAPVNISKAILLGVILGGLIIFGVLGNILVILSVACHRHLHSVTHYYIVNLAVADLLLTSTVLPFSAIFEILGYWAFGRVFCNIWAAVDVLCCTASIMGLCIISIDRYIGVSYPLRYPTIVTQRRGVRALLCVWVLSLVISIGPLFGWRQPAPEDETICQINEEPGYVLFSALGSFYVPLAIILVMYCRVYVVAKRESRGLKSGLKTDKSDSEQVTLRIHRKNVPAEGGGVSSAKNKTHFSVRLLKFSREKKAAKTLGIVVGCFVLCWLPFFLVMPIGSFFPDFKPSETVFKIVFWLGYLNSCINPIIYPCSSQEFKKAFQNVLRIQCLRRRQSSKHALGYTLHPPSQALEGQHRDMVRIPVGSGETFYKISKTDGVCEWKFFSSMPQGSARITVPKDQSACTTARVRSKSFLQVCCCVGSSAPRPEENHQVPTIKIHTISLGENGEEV

[7] = biological target: T4, Alpha-1D adrenergic receptor (Homo sapiens, UniProt P25100); assay: Displacement of [3H]prazosin from Homo sapiens (human) alpha1D adrenergic receptor
T4 sequence (P25100 whole entry): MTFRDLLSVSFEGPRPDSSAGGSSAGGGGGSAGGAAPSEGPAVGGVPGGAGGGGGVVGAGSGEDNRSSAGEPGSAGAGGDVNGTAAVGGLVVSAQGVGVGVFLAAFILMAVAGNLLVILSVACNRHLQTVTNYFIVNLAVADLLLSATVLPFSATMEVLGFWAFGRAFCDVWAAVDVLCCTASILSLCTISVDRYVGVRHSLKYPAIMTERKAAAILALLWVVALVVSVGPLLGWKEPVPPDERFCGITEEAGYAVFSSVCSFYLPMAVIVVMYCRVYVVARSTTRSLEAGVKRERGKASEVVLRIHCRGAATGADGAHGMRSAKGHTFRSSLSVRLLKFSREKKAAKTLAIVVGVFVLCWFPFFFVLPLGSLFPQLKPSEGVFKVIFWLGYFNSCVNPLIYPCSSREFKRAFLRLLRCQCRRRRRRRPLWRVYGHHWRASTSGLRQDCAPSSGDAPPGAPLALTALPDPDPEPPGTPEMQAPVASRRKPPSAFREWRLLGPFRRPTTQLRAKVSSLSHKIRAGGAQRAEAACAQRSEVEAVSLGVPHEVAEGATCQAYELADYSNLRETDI

[8] = biological target: T5, Alpha-1B adrenergic receptor (Homo sapiens, UniProt P35368); assay: Displacement of [3H]prazosin from Homo sapiens (human) alpha1B adrenergic receptor
T5 sequence (P35368 whole entry): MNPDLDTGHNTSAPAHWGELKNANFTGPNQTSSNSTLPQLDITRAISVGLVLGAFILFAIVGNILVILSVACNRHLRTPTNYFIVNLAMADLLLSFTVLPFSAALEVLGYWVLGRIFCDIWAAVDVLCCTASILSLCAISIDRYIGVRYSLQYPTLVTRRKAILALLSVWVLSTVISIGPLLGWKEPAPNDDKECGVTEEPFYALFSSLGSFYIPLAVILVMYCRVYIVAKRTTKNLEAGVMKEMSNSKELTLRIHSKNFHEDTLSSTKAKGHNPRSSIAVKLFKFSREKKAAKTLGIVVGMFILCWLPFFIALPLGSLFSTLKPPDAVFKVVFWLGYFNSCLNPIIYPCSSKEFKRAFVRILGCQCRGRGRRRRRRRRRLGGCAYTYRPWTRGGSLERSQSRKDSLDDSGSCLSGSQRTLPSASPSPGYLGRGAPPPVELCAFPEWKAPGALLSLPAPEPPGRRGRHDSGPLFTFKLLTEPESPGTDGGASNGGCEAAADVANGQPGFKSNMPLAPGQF

[9] = biological target: T6, Alpha-1A adrenergic receptor (Homo sapiens, UniProt P35348); assay: Displacement of [3H]prazosin from Homo sapiens (human) alpha1A adrenergic receptor
T6 sequence (P35348 whole entry): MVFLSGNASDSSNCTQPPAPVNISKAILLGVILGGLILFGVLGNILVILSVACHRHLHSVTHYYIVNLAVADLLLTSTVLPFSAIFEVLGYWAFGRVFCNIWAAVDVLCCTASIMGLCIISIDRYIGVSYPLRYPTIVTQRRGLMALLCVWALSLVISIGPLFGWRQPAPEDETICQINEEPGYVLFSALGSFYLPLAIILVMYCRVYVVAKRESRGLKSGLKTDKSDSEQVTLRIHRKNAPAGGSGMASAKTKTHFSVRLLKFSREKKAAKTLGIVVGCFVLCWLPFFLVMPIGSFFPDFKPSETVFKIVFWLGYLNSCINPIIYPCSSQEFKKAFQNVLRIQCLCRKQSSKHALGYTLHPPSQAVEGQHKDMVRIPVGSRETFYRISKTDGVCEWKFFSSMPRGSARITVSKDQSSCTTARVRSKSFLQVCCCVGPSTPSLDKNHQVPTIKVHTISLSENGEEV

[10] = biological target: T7, Alpha-1A adrenergic receptor (Rattus norvegicus, UniProt P43140); assay: Competitive antagonist activity at alpha1A adrenergic receptor in Rattus norvegicus (rat) vas deferens assessed as inhibition of (-)-noradrenaline-induced contraction; details: read-out: pA2 (converted)
T7 sequence (P43140 whole entry): T3 sequence (whole entry)

[11] = biological target: T7, Alpha-1A adrenergic receptor; assay: Antagonist activity at alpha1A adrenoreceptor in Rattus norvegicus (rat) small mesenteric artery; details: read-out: pA2 (converted)
[12] = biological target: T5, Alpha-1B adrenergic receptor; assay: Binding affinity to alpha1B adrenoreceptor (unknown origin) by radioligand binding assay

| Structure (SMILES) | Selectivity ratio (Rattus norvegicus [1]) | Selectivity ratio (Rattus norvegicus [2]) | Selectivity ratio (Rattus norvegicus [3]) | Kb [4] [nM] | pKb [5] | pKb [6] | Ki [7] [nM] | Ki [8] [nM] | Ki [9] [nM] | Kb [10] [nM] | Kb [11] [nM] | Ki [12] [nM] |
| --- | --- | --- | --- | --- | --- | --- | --- | --- | --- | --- | --- | --- |
| COc1cc2nc(N3CCN(C(=O)c4ccc(C(C)=O)o4)[C@H]4CCCC[C@@H]43)nc(N)c2cc1OC | 0.2 | 1510 | 302 | 214 | 9.85 | 7.37 | 7.41 | 1.38 | 25.7 |  |  |  |
| COc1cc2nc(N3CCN(C(=O)c4ccc(C)o4)[C@H]4CCCC[C@@H]43)nc(N)c2cc1OC | 2.3 | 174 | 407 | 91.2 | 9.28 | 6.67 | 4.79 | 0.871 | 23.4 |  |  |  |
| COc1ccc(C(=O)N2CCN(c3nc(N)c4cc(OC)c(OC)cc4n3)[C@H]3CCCC[C@@H]32)o1 | 1.6 | 457 | 724 | 89.1 | 9.71 |  | 3.63 | 0.871 | 27.5 | 141 |  |  |
| COc1cc2nc(N3CCN(C(=O)c4ccco4)[C@H]4CCCC[C@H]43)nc(N)c2cc1OC [(+)-CYCLAZOSIN] |  |  |  |  |  |  |  |  |  |  | 16.6 | 0.692 |
| COc1cc2nc(N3CCN(C(=O)c4ccc(Br)o4)[C@H]4CCCC[C@@H]43)nc(N)c2cc1OC | 0.5 | 398 | 199 | 58.9 | 9.83 | 7.53 | 1.55 | 0.309 | 3.47 |  |  |  |
